Measurements published in patent US5917053A, “Indole-2,3-dione-3-oxime derivatives, their preparation and use” (Neurosearch A/S, priority 1994, dated 1999).

Key:
AMPA receptor = AMPA receptor affinity (receptor binding, as described by T. Honore et al.); details: Neuroscience Letters 54, 27-32 (1985)
From the text: In Vitro activity (receptor affinity):
The compounds of the present invention has been tested for their affinity for the AMPA receptor as described by T. Honore et al., Neuroscience Letters 54, 27-32 (1985). IC50 values appear from the following Table 1.

[1] = test system: cultured mouse cerebral cortex neurons; test: Inhibition of stimulated 3H-GABA release from cultured cerebral cortex neurons; format: cell-based; details: Cerebral cortex neuron, 37° C., pH 7.4, stimulated 30 sec every 4 min
From the text: The compounds of the invention have also been tested for their ability to inhibit GABA release from cultured mouse cerebral cortex neurons using the following test:
Background: Neurons which express receptors for excitatory amino acids can be depolarized by such compounds and this depolarization will ultimately lead to a release of transmitter substance from the neurons. Cultured neurons obtained from 15-day-old mouse embryo cortex are mainly GABAergic and express all types of excitatory amino acid receptors. This means that they can be stimulated by high potassium or by the excitatory amino acids, NMDA, AMPA and kainate to release their neurotransmitter GABA.
^3 H-GABA may be used to label the GABA transmitter pool in the neurons and the release of ^3 H-GABA from the neurons may be used as a simple functional model for studies of the effects of excitatory amino acids and their antagonists.
Method: Cerebral cortices of 16-day-old mouse embryos are chopped in 0.4×0.4 mm cubes. The tissue is dissociated by mild trypsinization (0.1% (wt/vol) trypsin, 37° C., 15 min) and subsequently inoculated into poly-L-lysine-coated 3-cm Petri dishes containing a slightly modified DMEM (24.5 mM KCI, 30 mM glucose) supplemented with p-aminobenzoate (7 μM), insulin (100 mU/L) and 10% (vol/vol) horse serum. Cells are maintained in culture for 5-7 days with the addition of the antimitotic agent cytosine arbinoside (40 μM) from day 2 in vitro to prevent glial profileration. For further details and references, see Drejer et al. Exp. Brain Res. 47, 259 (1982).
Release experiments are performed using the model described by Drejer et al. Life Sci. 38, 2077 (1986). Cerebral cortex neurons cultured in Petri dishes (30 mm) are added 100 μM γ-vinyl-GABA one hour before the experiment in order to inhibit degradation of GABA in the neurons. 30 min before the experiment 5 μCi ^3 H-GABA is added to each culture and after this preloading period the cell monolayer at the bottom of the dish is covered with a piece of nylon mesh to protect the cells against mechanical damage and to facilitate dispersion of medium over the cell layer. The preloading medium is removed and the Petri dishes are placed in a superfusion system consisting of a peristaltic pump continously delivering thermostated 37° C. superfusion medium HEPES buffered saline (HBS): 10 mM HEPES, 135 mM NaCl, 5 mM KCl, 0.6 mM MgSO4, 1.0 mM CaCl2 and 6 mM D-glucose; pH 7.4) from a reservoir to the top of the slightly tilted Petri dish. The medium is continously collected from the lower part of the dish and delivered to a fraction collector. Initially, the cells are superfused with HBS for 15 min (flow rate 2 ml/min). Then the cells are stimulated for 30 sec every 4 min by changing the superfusion medium from HBS to a corresponding medium containing […].
Test subtances are dissolved in 50% DMSO, 48% ethanol. The final DMSO and ethanol concentration in the assay must not exceed 0.1%.
The stimulated release of ^3 H-GABA (cpm) are corrected for the mean basal release(cpm) before and after stimulation.
The stimulated release in the presence of antagonists are expressed relative to the stimulated release and the IC50 value for the antagonist is calculated (the concentration (μM) of the test substance which inhibit 50% of the stimulated ^3 H-GABA release).

Gerbils = test: Transient Forebrain Ischemia Model (2-VO Gerbils), global ischaemia, hippocampal damage; format: in vivo, gerbil; details: 30 mg/kg bolus i.v. followed by one hour infusion of 30 mg/kg (total 60 mg/kg) after 4 min occlusion; read four days later; Mann-Whitney Rank Sum Test
Experimental: The compound, 8-methyl-5-(4-(N,N-dimethylsulphamoyl)phenyl)-6,7,8,9-tetrahydro-1H-pyrrolo[3,2-h]isoquinoline-2,3-dione-3-O-(N-ethylcarbamoyl)oxime has also been tested in the following animal moder of global ischaemia:
Transient Forebrain Ischemia Model (2-VO Gerbils)
Gerbils were anaesthetized with halothane, right and left carotid arteries located and occluded for 4 minutes. Animals were kept warm before and after the operation using heating lamps. During the operation the gerbils were placed on heating plates, body temperature controlled and maintained at 37±0.5° C. Postocclusion, the gerbils were divided in two groups. One group received 30 mg/kg test compound as a bolus injection i.v. followed by a one hour infusion of 30 mg/kg test compound (total dose was 60 mg/kg). The control group received 0.9% NaCl in the same infusion volume as the treated group. Four days later, the animals were sacrificed, brains removed and cooled to -70° C. Thereafter, the brains were sectioned in […] thick sections of which 5-7 with hippocampal tissue were selected and stained with hematoxylin eosine (HE).
Based upon the degree of hippocampal damage, each hippocampus was categorised into one of four groups (Group 1: no damage in the CA1-layer; Group 2: the CA1-layer partly damaged; Group 3: the CA1-layer completely damaged; and Group 4: damage in more than just the CA1-layer). […]

| IC50 (AMPA receptor) | IC50 [1] | Structure (SMILES) | neuroprotective effect in the gerbil 2-VO model (ischemic score, hippocampal damage) (Gerbils) |
| --- | --- | --- | --- |
| 38 nM | 190 nM | CCNC(=O)ON=C1C(=O)Nc2c1cc(-c1ccc(S(=O)(=O)N(C)C)cc1)c1c2CN(C)CC1 [8-methyl-5-(4-(N,N-dimethylsulphamoyl)phenyl)-6,7,8,9-tetrahydro-1H-pyrrolo[3,2-h]isoquinoline-2,3-dione-3-O-(N-ethylcarbamoyl)oxime] | significant neuroprotective effect |
| 150 nM | 2900 nM | CC(=O)ON=C1C(=O)Nc2c1cc(-c1ccccc1)c1c2CN(C)CC1 [8-methyl-5-phenyl-6,7,8,9-tetrahydro-1H-pyrrolo[3,2-h]isoquinoline-2,3-dione-3-O-acetyloxime] | – |
| 190 nM | > 3000 nM | CN1CCc2c(-c3ccccc3)cc3c(c2C1)NC(=O)C3=NOC(=O)C(C)(C)C [8-methyl-5-phenyl-6,7,8,9-tetrahydro-1H-pyrrolo[3,2-h]isoquinoline-2,3-dione-3-O-pivaloyloxime] | – |
| 1700 nM | 2700 nM | CCN1Cc2c(-c3ccccc3)cc3c(c2C1)NC(=O)C3=NOC(C)=O [7-ethyl-5-phenyl-1,6,7,8-tetrahydrobenzo[2,1-b:3,4-c]dipyrrole-2,3-dione 3-O-acetyloxime] | – |
| 14 nM | – | CN1CCc2c(-c3ccc(S(=O)(=O)N(C)C)cc3)cc3c(c2C1)NC(=O)C3=NOC(=O)NC1CCCCC1 [8-methyl-5-(4-(N,N-dimethylsulphamoyl)phenyl)-6,7,8,9-tetrahydro-1H-pyrrolo[3,2-h]isoquinoline-2,3-dione-3-O-(N-cyclohexylcarbamoyl)oxime] | – |
| 350 nM | 1400 nM | CCNC(=O)ON=C1C(=O)Nc2c1cc(-c1ccccc1)c1c2CN(C)CC1 [8-methyl-5-phenyl-6,7,8,9-tetrahydro-1H-pyrrolo[3,2-h]isoquinoline-2,3-dione-3-O-(N-ethylcarbamoyl)oxime] | – |
